According to ChEMBL document CHEMBL1149991, “Benzofuran based angiotensin II antagonists related to GR117289: enhancement of potency in vitro and oral activity” (Bioorg Med Chem Lett, 1993):

target: T1, Type-1 angiotensin II receptor (Oryctolagus cuniculus) (UniProt P34976); test: In vitro for its antagonistic activity against angiotensin II type 1 receptor in Rabbit Aorta; type: functional, tissue-based
T1 sequence (whole entry): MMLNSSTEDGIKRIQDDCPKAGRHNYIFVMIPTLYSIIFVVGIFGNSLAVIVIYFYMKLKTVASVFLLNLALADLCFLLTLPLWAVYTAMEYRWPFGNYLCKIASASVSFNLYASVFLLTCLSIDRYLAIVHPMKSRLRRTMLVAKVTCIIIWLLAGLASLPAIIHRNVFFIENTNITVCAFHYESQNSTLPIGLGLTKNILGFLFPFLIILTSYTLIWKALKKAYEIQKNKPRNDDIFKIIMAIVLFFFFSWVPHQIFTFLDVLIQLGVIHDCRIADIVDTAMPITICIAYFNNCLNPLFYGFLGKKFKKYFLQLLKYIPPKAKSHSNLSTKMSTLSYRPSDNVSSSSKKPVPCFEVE

pKB | Structure (SMILES)
7.3 | CCCCc1nc(Cl)c(C(=O)O)n1Cc1ccc2oc(-c3ccccc3-c3nnnn3C)c(Br)c2c1
7.8 | CCCCc1nc(Cl)c(C(=O)O)n1Cc1ccc2oc(-c3ccccc3NS(=O)(=O)C(F)(F)F)c(Br)c2c1
9.6 | CCCCc1nc(Cl)c(C(=O)O)n1Cc1ccc2oc(-c3ccccc3-c3nn[nH]n3)c(OC)c2c1
8.8 | CCCCc1nc(Cl)c(CNC(N)=O)n1Cc1ccc2oc(-c3ccccc3-c3nn[nH]n3)c(Br)c2c1
10.5 | CCCCc1nc(Cl)c(C(=O)O)n1Cc1ccc2oc(-c3ccccc3-c3nn[nH]n3)c(Cl)c2c1
8.8 | CCCCc1nc(Cl)c(C(=O)N(C)C)n1Cc1ccc2oc(-c3ccccc3-c3nn[nH]n3)c(Br)c2c1
9.8 | CCCCc1nc(Cl)c(CC(=O)O)n1Cc1ccc2oc(-c3ccccc3-c3nn[nH]n3)c(Br)c2c1
7.2 | CCCCc1nc(Cl)c(C(=O)O)n1Cc1ccc2oc(-c3ccccc3C(N)=O)c(Br)c2c1

More lines, now with the values behind:

Structure (SMILES) | pKB
CCCCc1nc(Cl)c(C(=O)O)n1Cc1ccc2oc(-c3ccccc3-c3nnn(C)n3)c(Br)c2c1 | 6.4
CCCCc1nc(Cl)c(C(=O)NC)n1Cc1ccc2oc(-c3ccccc3-c3nn[nH]n3)c(Br)c2c1 | 9.2
CCCCc1nc(Cl)c(C(=O)O)n1Cc1ccc2oc(-c3ccccc3C(=O)Nc3nn[nH]n3)c(Br)c2c1 | 8.8
CCCCc1nc(Cl)c(C(=O)O)n1Cc1ccc2oc(-c3ccccc3C#N)c(Br)c2c1 | < 6
CCCCc1nc(Cl)c(C(=O)O)n1Cc1ccc2oc(-c3ccccc3C(=O)OCC)c(Br)c2c1 | 7.8
CCCCc1nc(Cl)c(C(=O)O)n1Cc1ccc2oc(-c3ccccc3-c3nn[nH]n3)c(C(C)(C)C)c2c1 | 8.3
CCCCc1nc(Cl)c(C(=O)O)n1Cc1ccc2oc(-c3ccccc3-c3nn[nH]n3)c(C(F)(F)F)c2c1 | 10
CCCCc1nc(Cl)c(C(=O)OCC)n1Cc1ccc2oc(-c3ccccc3-c3nn[nH]n3)c(Br)c2c1 | 8.3
CCCCc1nc(Cl)c(C(N)=O)n1Cc1ccc2oc(-c3ccccc3-c3nn[nH]n3)c(Br)c2c1 | 9
